{"source": "patent US10975123B2", "about": "“Mutant Akt-specific capture agents, compositions, and methods of using and making” (California Institute of Technology, priority 2014, dated 2021)", "target": "T1, wildtype PH Domain (PHD) of Akt1 (Homo sapiens, UniProt P31749)", "T1 construct": "The first 124 N-terminal amino acids from full length Akt1 were used as the PH Domain DNA; made in house; host or cells: E. coli", "T1 sequence (P31749 1-124)": "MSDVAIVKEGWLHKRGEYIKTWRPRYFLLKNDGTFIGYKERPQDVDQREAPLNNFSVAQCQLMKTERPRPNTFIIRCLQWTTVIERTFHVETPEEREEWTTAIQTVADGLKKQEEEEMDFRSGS", "test": "Streptavidin-agarose immunoprecipitation (pulldown), WT", "type": "binding", "details": "streptavidin agarose, 1xTBS, western blot band size, in words", "description": "Four biligand candidates were chosen based on their hydrophobicity and sequence homology using principal component analysis (FIG. 25). Biligands were synthesized by coupling the 2° ligand onto Rink Amide Resin on the Titan peptide synthesizer. The amide group on the end of the Lys(N3) was capped by shaking the resin with 2 mL acetic anhydride, 2 mL NMP and 0.5 mL DIEA for 3×10 minutes, then washed with NMP. FMOC-Propargylglycine-Otbu (Pra) was clicked onto the Lys(N3) on the 2° ligand by incubating 2 eq of the Pra amino acid with 2 eq CuI and 2 eq ascorbic acid with 1 eq azide on resin in 20% piperidine/NMP for 3 hours. The resin was washed 5×4 mL with a chelating solution of 1 g sodium diethyldithiocarbamate in 20 mL NMP and 1 mL DIEA. The anchor was then built onto the 2° ligand on bead, and an N-terminal PEG5-biotin tag were added. Assays were performed exactly as for the anchor ligands, except for two key differences. The biligand assays were done with 6 ug of GST-tagged PHD protein, instead of the untagged PHD that was used in the anchor pulldowns. The pull-downs were also conducted out of 1% serum in 1×TBS, as opposed to just 1×TBS.\nPulldown assays were done on Streptavidin Agarose resin from Invitrogen. The resin was incubated with N-terminal biotinylated anchor peptide candidates identified via the ClusterLigand sequence analysis. The anchor candidate coated beads were then incubated with either the wildtype or mutant protein to compare the selectivity of the ligands, as well as the binding ability. The bound protein was eluted and western blotted to compare the amount of protein present for each sample.\nRelative protein band sizes were analyzed to compare binding between the anchor candidates and were used to determine selectivity for either wildtype or mutant PH Domain (FIG. 11). […] Both of these ligands look fairly selective for their respective PH Domain.", "note": "Where a SMILES comes first, the peptide text is derived from it. [ ]: non-standard residue; d: D form."}
{"molecule": "CC(C)C[C@@H](NC(=O)[C@H](N)Cc1ccc(O)cc1)C(=O)N[C@H](CCC(=O)O)C(=O)N[C@H](C)C(=O)N[C@H](Cc1ccccc1)C(N)=O", "note": "[yleaf] (H-[dY][dL][dE][dA][dF]-NH2; N-terminus assumed)", "values": [{"measurement": "pulldown of wildtype PH Domain by biotinylated anchor candidates", "value": "the least binding to the wildtype"}]}
